# In patent publication US20230201301A1 (priority 2020, published 2023):
# Columns and labels:
# SARS-CoV-2 = assay type: in vivo, transgenic mice B6.Cg-Tg(K18-ACE2)2Prlmn/J
# sTREM-1 = test system: sTREM-1; set-up: species or system transgenic mice B6.Cg-Tg(K18-ACE2)2Prlmn/J; conditions: mouse, in vivo, ip
# cytokines/chemokines = test system: cytokines/chemokines; set-up: species or system transgenic mice B6.Cg-Tg(K18-ACE2)2Prlmn/J; conditions: mouse, in vivo
sequence,measurement,setting,value
LQEEDTGEYGCV (TLT-1 peptide) [LR12],bodyweight loss day 0 to day 10,"SARS-CoV-2; 2 mg i.p. at t0+1 h, 24, 48, 72, 96 h, vs vehicle, LOCF, FIG. 2-3",significant reduced bodyweight loss
same,mortality (survival D0 to D10),"SARS-CoV-2; 2 mg i.p. at t0+1 h, 24, 48, 72, 96 h, vs vehicle, N=16 per treatment group, FIG. 1",significant reduction in mortality
same,mean respiratory score,"SARS-CoV-2; scale 0 (normal respiration) to 5 (dead mouse), up to day 10, 2 mg i.p., vehicle group 5, FIG. 5",3
same,mean clinical score,"SARS-CoV-2; scale 1 (healthy mouse) to 5 (dead mouse), up to day 10, 2 mg i.p., vehicle group 5, FIG. 4",3.5
same,plasma sTREM-1 level (median),sTREM-1,132.3 pg/mL
same,IP-10 plasma concentration vs vehicle,cytokines/chemokines,decrease
same,IFNα plasma concentration vs vehicle,cytokines/chemokines; ip,decrease
same,IL-6 plasma concentration vs vehicle,cytokines/chemokines; ip,decrease
same,IL-10 plasma concentration vs vehicle,cytokines/chemokines; ip,increase
